How the values were obtained:
recombinant NS5BCΔ21 1b = recombinant NS5BCΔ21 1b (Hepatitis C virus genotype 1b, UniProt O92972); assay: NS5B primer dependent elongation; type: biochemical; conditions: for inhibition at 50 µM: read-out: inhibition of NS5B RdRp activity, screen at 50 μM
Huh-5-2 cells = assay: MTS assay of antimetabolic effect, Huh-5-2; type: cell-based; conditions: data not shown
[1] = tested on: genotype 1b HCV subgenomic replicon in Huh-5-2 cells; type: cell-based, hepatitis C virus

SMILES | inhibition at 50 µM (recombinant NS5BCΔ21 1b) [%] | antimetabolic effect after dose–response curve analysis (Huh-5-2 cells) | assessment of anti-HCV activity in the replicon assay (in words) [1] | anti-NS5B activity (in words) (recombinant NS5BCΔ21 1b)
CN1c2c(C(=O)Nc3ccc(NS(C)(=O)=O)cc3)nn(-c3ccc(Cl)c(Cl)c3)c2-c2ccccc2S1(=O)=O [2p, 1-(3,4-Dichlorophenyl)-4-methyl-N-{4-[(methylsulfonyl)amino]phenyl}-1,4-dihydropyrazolo[4,3-c][1,2]benzothiazine-3-carboxamide 5,5-Dioxide] | ≥ 50 | displayed antimetabolic effect | – | –
CN1c2c(C(=O)Nc3ccc(NS(C)(=O)=O)cc3)nn(-c3ccc(Br)cc3)c2-c2ccccc2S1(=O)=O [2e, 1-(4-Bromophenyl)-4-methyl-N-{4-[(methylsulfonyl)amino]phenyl}-1,4-dihydropyrazolo[4,3-c][1,2]benzothiazine-3-carboxamide 5,5-Dioxide] | – | – | selective anti-HCV activity without any antimetabolic effect | –
COc1cccc(-n2nc(C(=O)Nc3ccc(NS(C)(=O)=O)cc3)c3c2-c2ccccc2S(=O)(=O)N3C)c1 [2j, 1-(3-Methoxyphenyl)-4-methyl-N-{4-[(methylsulfonyl)amino]phenyl}-1,4-dihydropyrazolo[4,3-c][1,2]benzothiazine-3-carboxamide 5,5-Dioxide] | < 50 | – | – | inactive
CN1c2c(C(=O)Nc3ccc(NS(C)(=O)=O)cc3)nn(-c3cccc(Br)c3)c2-c2ccccc2S1(=O)=O [2d, 1-(3-Bromophenyl)-4-methyl-N-{4-[(methylsulfonyl)amino]phenyl}-1,4-dihydropyrazolo[4,3-c][1,2]benzothiazine-3-carboxamide 5,5-Dioxide] | – | – | selective anti-HCV activity without any antimetabolic effect | –
CN1c2c(C(=O)Nc3ccc(NS(C)(=O)=O)cc3)nn(-c3ccc(C(F)(F)F)cc3)c2-c2ccccc2S1(=O)=O [2m, 4-Methyl-N-{4-[(methylsulfonyl)amino]phenyl}-1-[4-(trifluoromethyl)phenyl]-1,4-dihydropyrazolo[4,3-c][1,2]benzothiazine-3-carboxamide 5,5-Dioxide] | ≥ 50 | displayed antimetabolic effect | – | –
CN1c2c(C(=O)Nc3ccc(NS(C)(=O)=O)cc3)nn(-c3ccc(Cl)c(C(F)(F)F)c3)c2-c2ccccc2S1(=O)=O [2s, 1-[4-Chloro-3-(trifluoromethyl)phenyl]-4-methyl-N-{4-[(methylsulfonyl)amino]phenyl}-1,4-dihydropyrazolo[4,3-c][1,2]benzothiazine-3-carboxamide 5,5-Dioxide] | < 50 | displayed antimetabolic effect | – | –
CN1c2c(C(=O)Nc3ccc(NS(C)(=O)=O)cc3)nn(-c3ccccc3Cl)c2-c2ccccc2S1(=O)=O [2c, 1-(2-Chlorophenyl)-4-methyl-N-{4-[(methylsulfonyl)amino]phenyl}-1,4-dihydropyrazolo[4,3-c][1,2]benzothiazine-3-carboxamide 5,5-Dioxide] | – | displayed antimetabolic effect | – | –
CN1c2c(NC(=O)c3ccc(NS(C)(=O)=O)cc3)nn(-c3cccc(F)c3)c2-c2ccccc2S1(=O)=O [compound 5, N-[1-(3-Fluorophenyl)-4-methyl-5,5-dioxido-1,4-dihydropyrazolo[4,3-c][1,2]benzothiazin-3-yl]-4-(methylsulfonyl)aminobenzamide] | – | – | – | inactive
Cc1ccc(-n2nc(C(=O)Nc3ccc(NS(C)(=O)=O)cc3)c3c2-c2ccccc2S(=O)(=O)N3C)cc1C [2q, 1-(3,4-Dimethylphenyl)-4-methyl-N-{4-[(methylsulfonyl)amino]phenyl}-1,4-dihydropyrazolo[4,3-c][1,2]benzothiazine-3-carboxamide 5,5-Dioxide] | < 50 | – | – | –
CN1c2c(C(=O)Nc3ccccc3)nn(-c3cccc(F)c3)c2-c2ccccc2S1(=O)=O [compound 3, 1-(3-Fluorophenyl)-4-methyl-N-phenyl-1,4-dihydropyrazolo[4,3-c][1,2]benzothiazine-3-carboxamide 5,5-Dioxide] | – | – | false positives | inactive
CN1c2c(C(=O)Nc3ccc(NS(C)(=O)=O)cc3)nn(-c3ccc(F)c(F)c3)c2-c2ccccc2S1(=O)=O [2o, 1-(3,4-Difluorophenyl)-4-methyl-N-{4-[(methylsulfonyl)amino]phenyl}-1,4-dihydropyrazolo[4,3-c][1,2]benzothiazine-3-carboxamide 5,5-Dioxide] | ≥ 50 | – | false positives | less active than compound 1
Cc1ccccc1-n1nc(C(=O)Nc2ccc(NS(C)(=O)=O)cc2)c2c1-c1ccccc1S(=O)(=O)N2C [2i, 4-Methyl-1-(2-methylphenyl)-N-{4-[(methylsulfonyl)amino]phenyl}-1,4-dihydropyrazolo[4,3-c][1,2]benzothiazine-3-carboxamide 5,5-Dioxide] | – | displayed antimetabolic effect | – | –
CN1c2c(C(=O)Nc3ccc(NS(C)(=O)=O)cc3)nn(-c3cccc(C(F)(F)F)c3)c2-c2ccccc2S1(=O)=O [2l, 4-Methyl-N-{4-[(methylsulfonyl)amino]phenyl}-1-[3-(trifluoromethyl)phenyl]-1,4-dihydropyrazolo[4,3-c][1,2]benzothiazine-3-carboxamide 5,5-Dioxide] | ≥ 50 | – | selective anti-HCV activity without any antimetabolic effect | –
CN1c2c(C(=O)Nc3ccc(NS(C)(=O)=O)cc3)n[nH]c2-c2ccccc2S1(=O)=O [2u, 4-Methyl-N-{4-[(Methylsulfonyl)amino]phenyl}-1,4-dihydropyrazolo[4,3-c][1,2]benzothiazine-3-carboxamide 5,5-Dioxide] | < 50 | – | – | totally inactive
Cc1cccc(-n2nc(C(=O)Nc3ccc(NS(C)(=O)=O)cc3)c3c2-c2ccccc2S(=O)(=O)N3C)c1 [2g, 4-Methyl-1-(3-methylphenyl)-N-{4-[(methylsulfonyl)amino]phenyl}-1,4-dihydropyrazolo[4,3-c][1,2]benzothiazine-3-carboxamide 5,5-Dioxide] | – | – | selective anti-HCV activity without any antimetabolic effect | –
CN1c2c(C(=O)Nc3ccc(NS(C)(=O)=O)cc3)nn(-c3ccccc3C(F)(F)F)c2-c2ccccc2S1(=O)=O [2n, 4-Methyl-N-{4-[(methylsulfonyl)amino]phenyl}-1-[2-(trifluoromethyl)phenyl]-1,4-dihydropyrazolo[4,3-c][1,2]benzothiazine-3-carboxamide 5,5-Dioxide] | < 50 | – | – | –
CN1c2c(C(=O)Nc3ccc(NS(C)(=O)=O)cc3)nn(-c3ccccc3Br)c2-c2ccccc2S1(=O)=O [2f, 1-(2-Bromophenyl)-4-methyl-N-{4-[(methylsulfonyl)amino]phenyl}-1,4-dihydropyrazolo[4,3-c][1,2]benzothiazine-3-carboxamide 5,5-Dioxide] | – | – | false positives | –
